Laboratory results as given in ChEMBL document CHEMBL1133956, “Antagonists of the human CCR5 receptor as anti-HIV-1 agents. Part 3: a proposed pharmacophore model for 1-[N-(methyl)-N-(phenylsulfonyl)amino]-2-(phenyl)-4-[4-(substituted)piperidin-1-yl]butanes” (Bioorg Med Chem Lett, 2001).

These molecules were tested against T1, C-C chemokine receptor type 5 (Homo sapiens, UniProt P51681) (assay: Inhibition of [125I]-MIP-1 alpha binding to human CCR5 receptor expressed in Chinese hamster ovary (CHO) cells at 1000 nM;).
Type: cell-based
Target sequence in this assay (P51681 whole entry, looked up): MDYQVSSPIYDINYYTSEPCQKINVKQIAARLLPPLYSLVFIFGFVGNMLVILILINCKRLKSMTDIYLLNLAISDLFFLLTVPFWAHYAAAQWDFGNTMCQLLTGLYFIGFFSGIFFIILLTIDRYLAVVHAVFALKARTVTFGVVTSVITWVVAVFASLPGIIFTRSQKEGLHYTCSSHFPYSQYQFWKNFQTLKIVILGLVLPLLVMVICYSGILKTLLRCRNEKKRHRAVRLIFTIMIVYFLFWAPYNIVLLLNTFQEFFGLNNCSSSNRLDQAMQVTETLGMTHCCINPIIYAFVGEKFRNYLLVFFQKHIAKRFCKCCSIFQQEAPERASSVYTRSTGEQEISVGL
In the case of CN(C[C@@H](CCN1CCC2(CC1)CC(=O)c1ccccc1O2)c1cccc(Cl)c1)S(=O)(=O)c1ccccc1, the inhibition is reported as 24%.

The molecules below were run against T1, C-C chemokine receptor type 5 (assay: Inhibition of [125I]-MIP-1 alpha binding to human CCR5 receptor expressed in Chinese hamster ovary (CHO) cells).
Type: cell-based
Target sequence in this assay (P51681 whole entry): as the sequence (P51681 whole entry, looked up) above
CN(C[C@@H](CCN1CCC2(CC1)NC(=O)c1ccccc12)c1cccc(Cl)c1)S(=O)(=O)c1ccccc1 showed an IC50 of 45 nM.
CN(C[C@@H](CCN1CCC(Cc2ccccc2)CC1)c1cccc(Cl)c1)S(=O)(=O)c1ccccc1 gave an IC50 of 250 nM.
Work on CN(C[C@@H](CCN1CCN(c2ccccc2)CC1)c1cccc(Cl)c1)S(=O)(=O)c1ccccc1 yielded an IC50 of 700 nM.
CN(C[C@@H](CCN1CCC2(CC1)CC(=O)c1ccccc12)c1cccc(Cl)c1)S(=O)(=O)c1ccccc1 showed an IC50 of 5 nM.
Molecule CN(C[C@@H](CCN1CCC(CCCc2ccccc2)CC1)c1cccc(Cl)c1)S(=O)(=O)c1ccccc1 has an IC50 of 5 nM.
In the case of CN(C[C@@H](CCN1CCC(c2cccc(C(F)(F)F)c2)CC1)c1cccc(Cl)c1)S(=O)(=O)c1ccccc1, the IC50 is reported as 120 nM.
For COc1ccccc1C1CCN(CC[C@H](CN(C)S(=O)(=O)c2ccccc2)c2cccc(Cl)c2)CC1, the IC50 was 70 nM.
In the case of CN(C[C@@H](CCN1CCC(c2ccc(Cl)cc2)CC1)c1cccc(Cl)c1)S(=O)(=O)c1ccccc1, the IC50 is reported as 200 nM.
Work on CN(C[C@@H](CCN1CCC2(CC1)CC(O)c1ccccc12)c1cccc(Cl)c1)S(=O)(=O)c1ccccc1 (some centres not stated) yielded an IC50 of 100 nM.
Cc1ccccc1C1CCN(CC[C@H](CN(C)S(=O)(=O)c2ccccc2)c2cccc(Cl)c2)CC1 showed an IC50 of 400 nM.
CN1C(=O)c2ccccc2C12CCN(CC[C@H](CN(C)S(=O)(=O)c1ccccc1)c1cccc(Cl)c1)CC2 showed an IC50 of 100 nM.
CN(C[C@@H](CCN1CCC2(CC1)CNC(=O)c1ccccc12)c1cccc(Cl)c1)S(=O)(=O)c1ccccc1 was tested, and the IC50 was 35 nM.
CN(C[C@@H](CCN1CCC2(CC1)CNc1ccccc12)c1cccc(Cl)c1)S(=O)(=O)c1ccccc1 gave an IC50 of 50 nM.
Work on CN(C[C@@H](CCN1CCC(CCc2ccccc2)CC1)c1cccc(Cl)c1)S(=O)(=O)c1ccccc1 yielded an IC50 of 65 nM.
In the case of CN(C[C@@H](CCN1CCC2(CC1)Cc1ccccc1O2)c1cccc(Cl)c1)S(=O)(=O)c1ccccc1, the IC50 is reported as 260 nM.
With Cc1ccccc1N1CCN(CC[C@H](CN(C)S(=O)(=O)c2ccccc2)c2cccc(Cl)c2)CC1 the IC50 was 2400 nM.
CN(C[C@@H](CCN1CCC(c2ccc(F)cc2)CC1)c1cccc(Cl)c1)S(=O)(=O)c1ccccc1 gave an IC50 of 25 nM.
For CN(C[C@@H](CCN1CCC2(CC1)CC(=O)Nc1ccccc12)c1cccc(Cl)c1)S(=O)(=O)c1ccccc1, the IC50 was 35 nM.
Work on CN(C[C@@H](CCN1CCC2(CCc3ccccc32)CC1)c1cccc(Cl)c1)S(=O)(=O)c1ccccc1 yielded an IC50 of 180 nM.

These molecules were tested against T1, C-C chemokine receptor type 5 (assay: Inhibition of [125I]-MIP-1 alpha binding to human CCR5 receptor expressed in Chinese hamster ovary (CHO) cells; completely inactive).
Type: cell-based
Target sequence in this assay (P51681 whole entry): as the sequence (P51681 whole entry, looked up) above
Molecule CN(C[C@@H](CCc1ccc(-c2ccccc2)cc1)c1ccc(Cl)c(Cl)c1)S(=O)(=O)c1ccccc1 has an IC50 greater than 10000 nM.
Molecule CN(C[C@@H](CCNCCc1ccccc1)c1cccc(Cl)c1)S(=O)(=O)c1ccccc1 has an IC50 greater than 10000 nM.
With CN(C[C@@H](CCc1ccc(-c2ccccc2)cn1)c1ccc(Cl)c(Cl)c1)S(=O)(=O)c1ccccc1 the IC50 was greater than 10000 nM.
With CN(CCc1ccccc1)CC[C@H](CN(C)S(=O)(=O)c1ccccc1)c1cccc(Cl)c1 the IC50 was greater than 10000 nM.

The molecules below were run against T1, C-C chemokine receptor type 5 (assay: Inhibition of [125I]-MIP-1 alpha binding to human CCR5 receptor expressed in Chinese hamster ovary (CHO) cells at 1000 nM).
Type: cell-based
Target sequence in this assay (P51681 whole entry, looked up): as above
CN(C[C@@H](CCN1CCC2(CC1)CN(S(C)(=O)=O)c1ccccc12)c1cccc(Cl)c1)S(=O)(=O)c1ccccc1 showed an inhibition of 12%.
Work on CN(C[C@@H](CCN1CCCCC1)c1cccc(Cl)c1)S(=O)(=O)c1ccccc1 yielded an inhibition of 27%.
CN(C[C@@H](CCN1CCC(C(C)(C)C)CC1)c1cccc(Cl)c1)S(=O)(=O)c1ccccc1 gave an inhibition of 40%.
